Data from article PMC5398486, “Cheminformatics-aided discovery of small-molecule Protein-Protein Interaction (PPI) dual inhibitors of Tumor Necrosis Factor (TNF) and Receptor Activator of NF-κB Ligand (RANKL)” (PLoS Computational Biology, 2017).
Values after ≈ are worked out from the molar mass of the structure shown. Read-outs that look alike come from different tables or passages of the source.

How the values were obtained:
[1] = molecular target: T1, human RANKL (Homo sapiens, UniProt O14788); experiment: Cross-linking experiments, RANKL trimer formation; format: biochemical; settings: molar ratio of 1:1 relative to RANKL, BS3 cross-linking
T1 construct: purchased Peprotech
T1 sequence (O14788 143-317 limits assumed): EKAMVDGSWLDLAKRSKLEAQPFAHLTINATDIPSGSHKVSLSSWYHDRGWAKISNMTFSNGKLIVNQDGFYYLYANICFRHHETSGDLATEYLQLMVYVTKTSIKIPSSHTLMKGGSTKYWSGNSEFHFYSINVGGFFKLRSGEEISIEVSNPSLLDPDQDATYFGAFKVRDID
Protocol: (§1) 100 ng of recombinant human TNF or RANKL (Peprotech) were incubated with the inhibitors for 30 min at room temperature and then subjected to cross-linking, using 4.8 mM BS3 (ThermoFisher Scientific) for 30 min at room temperature. The reaction was stopped by adding 1/10th volume of 1 M Tris-HCl, pH 7.5. Samples were then subjected to SDS-PAGE and western blotting using an anti human-TNF or RANKL antibody (both R&D Systems).
(§2) Human TNF or RANKL was incubated with T8 or T23, chemically cross-linked, and subjected to SDS-PAGE. This was followed by western blotting to detect the various TNF and RANKL multimers. Both inhibitors were used at a molar ratio of 4:1 relative to TNF and 1:1 relative to RANKL. Numbers indicate molecular weights in kDa; NC = non cross-linked control (no inhibitor, no cross-linking); CC = cross-linked control (no inhibitor).

[2] = molecular target: T2, TNF/TNFR1 interaction (Homo sapiens, UniProt P01375); experiment: TNF/TNFR1 ELISA assay; format: binding
T2 construct: purchased PeproTech
T2 sequence (P01375 77-233 limits assumed): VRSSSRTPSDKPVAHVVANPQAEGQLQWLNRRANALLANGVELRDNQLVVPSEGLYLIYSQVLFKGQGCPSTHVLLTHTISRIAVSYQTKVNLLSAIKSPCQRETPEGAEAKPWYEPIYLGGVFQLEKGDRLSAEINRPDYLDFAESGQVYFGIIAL
Protocol: 96-well plates were coated with 0.1 mg/mL recombinant soluble human TNFR1 (PeproTech) in PBS overnight at 4°C. […] After two consecutive rounds of washes, plates were incubated with a rabbit anti-human-TNF antibody (provided by Prof. W. A. Buurman, University of Maastricht) and an anti-rabbit secondary antibody conjugated with HRP (Vector Laboratories). Both incubations were for 1 h and were performed at room temperature. Following a last round of washes, the signal was finally developed using the TMB Substrate Kit (ThermoFisher Scientific) and was measured spectrophotometrically at 450 nm. Experiments were performed in triplicate. Having established that the selected compounds obstruct TNF function, and since TNF exerts its functions mainly through interacting with the TNFR1 receptor, a further test was performed to evaluate the effect of inhibition on this protein-receptor interaction.

[3] = molecular target: T3, RANKL (Homo sapiens, UniProt O14788); experiment: Fluorescence-based binding affinity assay, RANKL; settings: for 'n' value from Scatchard plot (ligand binding sites per protein molecule): RANKL, binding assay raw data
T3 sequence (O14788 143-317): T1 sequence (O14788 143-317 limits assumed)
Protocol: (§3) For use in the binding assays, recombinant TNF and RANKL were expressed and purified as previously described.[84–86] Fluorescence intensity was measure with a Synergy H1 Multi-Mode Reader (BioTek) in 96-well microplates (black) at 25°C. […] During preparation of the solutions the buffer was firstly added to all wells followed by the ligand solution and finally the protein was added. All solutions were mixed by pipetting and equilibrated for 1h at 25°C before measurement. […] Experiments were performed for TNF in 10 mM citrate-phosphate (pH 6.5) and for RANKL in 25 mM Tris–HCl buffer, 100 mM NaCl (pH 7.5); both buffers were supplemented with PEG3350 at the concentrations indicated in the respective figures. Kd values were calculated as mean ± SEM from three independent experiments.
(§4) Differences in fluorescence intensity between the protein/ligand complex and free protein (or free ligand) were analysed as previously described in [Papaneophytou et al. (2013) ACS Med Chem Lett. 4: 137-141] (Eq. S6) in order to determine the dissociation constant (Kd) of the various protein-ligand systems.
(§5) In Eq. (S6) Fobs is the observed fluorescence intensity; FBG is the fluorescence background signal; MFLF [picture] and PF are the molar fluorescence and concentration of free protein, respectively; FR is the fluorescence ratio of bound protein (or bound ligand in the case of a fluorescence ligand); LT and PT are the total concentrations of ligand and protein, respectively. A detailed analysis of the development of the fluorescence ligand-binding assay is given in [Papaneophytou et al. (2013) ACS Med Chem Lett. 4: 137-141].

[4] = molecular target: T4, TNF (Homo sapiens, UniProt P01375); experiment: Fluorescence-based binding affinity assay, TNF; set-up: made in house; settings: for 'n' value from Scatchard plot (ligand binding sites per protein molecule): TNF, binding assay raw data
T4 sequence (P01375 77-233 limits assumed): as above
Protocol: as §3, §4, §5

[5] = BM viability (MTT assay); format: cell-based; settings: primary bone marrow cells, M-CSF 25 ng/mL, read-out: LC50 (RANKL complexes, BM viability)
Protocol: BMs were plated on 96-well plates at a density of 10^5 cells/well and treated with T8 and T23 at various concentrations, in the presence of M-CSF (25 ng/mL) for 48 hours. Cell viability was determined by the 3-(4,5-dimethylthiazol-2-yl)-2,5-diphenyltetrazolium bromide (MTT) colorimetric assay, which measures the ability of viable cells to reduce a soluble tetrazolium salt to an insoluble purple formazan precipitate.[63] After removal of the medium, each well was incubated with 0.5 mg/mL MTT (Sigma-Aldrich, St. Louis, MO) in serum-free α-MEM at 37°C for 3 h. At the end of the incubation period, the medium was removed and the intracellular formazan was solubilized with 200 μL DMSO and quantified by reading the absorbance at 550 nm on a microplate reader (Optimax; Molecular Devices, Sunnyvale, CA). Cell viability (%) was expressed as a percentage of the negative control treated without compounds. LC50 values were calculated as mean ± SEM from three independent experiments.

[6] = Solubility with PEG3350 as co-solvent; format: physicochemical
Excerpt: PEG3350 was used as co-solvent in order to enhance inhibitors solubility and thus eliminate the possibility of aggregates formation. | column: Solubility (μM)

[7] = molecular target: T4, TNF; experiment: Cross-linking experiments, TNF trimer formation; format: biochemical; set-up: purchased PeproTech; settings: molar ratio of 4:1 relative to TNF, BS3 cross-linking
Protocol: as §1, §2

[8] = RANKL 0.5 μM, PEG3350 2.5%, 25 mM Tri-HCl, 100 mM NaCl pH 7.5, read-out: Binding affinity (Kd), RANKL
[9] = RANKL 0.5 μM, PEG3350 5%, 25 mM Tri-HCl, 100 mM NaCl pH 7.5, read-out: Binding affinity (Kd), RANKL
[10] = RANKL 1.5 μM, PEG3350 5%, 25 mM Tri-HCl, 100 mM NaCl pH 7.5, read-out: Binding affinity (Kd), RANKL
[11] = RANKL 2.5 μM, PEG3350 5%, 25 mM Tri-HCl, 100 mM NaCl pH 7.5, read-out: Binding affinity (Kd), RANKL
[12] = fluorescence assay, 25°C, 25 mM Tris-HCl, 100 mM NaCl, pH 7.5, 5% PEG3350, read-out: Kd (RANKL complexes)
[13] = TNF 0.75 μM, PEG3350 2.5%, 10 mM Citrate-phosphate buffer pH 6.5, read-out: Binding affinity (Kd), TNF
[14] = TNF 0.75 μM, PEG3350 5%, 10 mM Citrate-phosphate buffer pH 6.5, read-out: Binding affinity (Kd), TNF
[15] = TNF 1.5 μM, PEG3350 5%, 10 mM Citrate-phosphate buffer pH 6.5, read-out: Binding affinity (Kd), TNF
[16] = TNF 2.5 μM, PEG3350 5%, 10 mM Citrate-phosphate buffer pH 6.5, read-out: Binding affinity (Kd), TNF
[17] = fluorescence assay, 25°C, citrate-phosphate buffer, 5% PEG3350, read-out: Kd (TNF complexes)
[18] = 2.5% v/v PEG3350 as co-solvent, PEG3350 2.5% v/v
[19] = 5% v/v PEG3350 as co-solvent, aqueous with cosolvent or surfactant or cyclodextrin, PEG3350 5% v/v

SMILES | formation of RANKL trimers (cross-linking, western blot) [1] | IC50 [2] [µM] | Kd [3, 8] [µM] | Kd [3, 9] [µM] | Kd [3, 10] [µM] | Kd [3, 11] [µM] | 'n' value from Scatchard plot (ligand binding sites per protein molecule) [3] | Kd [3, 12] [µM] | Kd [4, 13] [µM] | Kd [4, 14] [µM] | Kd [4, 15] [µM] | Kd [4, 16] [µM] | 'n' value from Scatchard plot (ligand binding sites per protein molecule) [4] | Kd [4, 17] [µM] | CC50 at 48 h [5] [µM] | solubility [6, 18] [µM] | solubility [6, 19] [µM] | solubility ([6]; PEG3350 0% v/v) [µM] | formation of TNF trimers (cross-linking, western blot) [7] | further results
O=C(NNC(=NS(=O)(=O)c1ccc(-n2nc(C(F)(F)F)cc2-c2cccs2)cc1)N1CCCC1)c1ccc(Cl)cc1 [Compound T8, N-[(4-chlorobenzoyl)amino]-N'-[4-[5-thiophen-2-yl-3-(trifluoromethyl)pyrazol-1-yl]phenyl]sulfonylpyrrolidine-1-carboximidamide] | obstruct the formation of active TNF and RANKL trimers | 30 ± 2.3 | 6.15 ± 0.22 | 6.32 ± 0.62 | 6.55 ± 0.84 | 6.05 ± 0.37 | 1 | 6.3 ± 0.6 | 9.55 ± 0.81 | 8.78 ± 0.76 | 9.02 ± 0.88 | 9.17 ± 0.88 | 1 | 8.8 ± 0.8 | 42.6 ± 4.3 | 32 (≈ 19.9 µg/mL) | 48 (≈ 29.9 µg/mL) | < 1 | obstruct the formation of active TNF and RANKL trimers | –
COc1cc(OC(C)=O)c(-c2cc(OC(C)=O)c(OC)cc2OC(C)=O)cc1OC(C)=O [Compound T23, [4-acetyloxy-2-(2,5-diacetyloxy-4-methoxyphenyl)-5-methoxyphenyl] acetate] | obstruct the formation of active TNF and RANKL trimers | 3 ± 0.1 | 7.44 ± 0.52 | 7.25 ± 0.44 | 7.62 ± 0.84 | 7.02 ± 0.33 | 1 | 7.3 ± 0.4 | 3.02 ± 0.31 | 2.8 ± 0.19 | 2.63 ± 0.25 | 2.98 ± 0.47 | 1 | 2.8 ± 0.2 | 5.9 ± 0.3 | 88 | 117 | 36 | obstruct the formation of active TNF and RANKL trimers | Kd ([3]; RANKL 0.5 μM, PEG3350 0%, 25 mM Tri-HCl, 100 mM NaCl pH 7.5, read-out: Binding affinity (Kd), RANKL): 7.02 ± 0.63 µM; Kd ([4]; TNF 0.75 μM, PEG3350 0%, 10 mM Citrate-phosphate buffer pH 6.5, read-out: Binding affinity (Kd), TNF): 2.53 ± 0.23 µM
